Among the data in US20230041692A1, “NOVEL PEPTIDE HORMONES” (THE UNIVERSITY OF SYDNEY, priority 2019, published 2023) are body weight and food intake values, retold here.

This assay relates to C57BL/6J male mice. Kind of assay: Crossover peptide injection trial in mice (food intake and body weight). Type of assay: in vivo. The note with it: intraperitoneal injection at 5pm, change measured 16 h after injection, C57BL/6J male mice at 14 weeks, compared to vehicle injection. On the procedure: FIG. 6: Analysis of erusiolin producing cells, secretion in response to food and effects of erusiolin injection in mice. […] Staining is consistent with erusiolin positivity in rare enteroendocrine cell populations. […] Each line is one participant. […] Animals were randomised to the sequence of treatment days that were random in order, with washout days between injection treatment days. Peptides were injected at 5pm before the night phase and the change in body weight and food intake measured after 16 h. (n=14) ***P<0.001,*P<0.05. Erusiolin refers to the synthetic peptide of sequence APFLLEDPANQFLRL (SEQ ID NO: 2), DPP4-cleaved refers to the synthetic peptide of sequence FLLEDPANQFLRL (SEQ ID NO: 3).
In these experiments “erusiolin” refers to the synthetic peptide of sequence APFLLEDPANQFLRL (SEQ ID NO: 2), “DPP4-cleaved” refers to the synthetic peptide of sequence FLLEDPANQFLRL (SEQ ID NO: 3). These peptides were synthesised and purified as the TFA-salt by a commercial supplier (Genscript), which generated 10 mg of each peptide at >90% purity. TFA removal and formation of the HCL-peptide salt was performed by freeze-drying the peptide solution (in LC-grade H2O) for 16 h and resuspension in 500 uL of 10 mM HC1 in LC-grade H2O. This solution was then freeze-dried for 16 h. A total of three rounds of 10 mM HC1 resuspension and freeze-drying for 16 h were performed. After the final drying step, the peptides were resuspended in LC-grade H2O. The peptide solutions were analysed for TFA contamination and determination of the peptide concentration using FT-IR spectroscopy. No TFA contamination was observed and the final peptide concentrations were 5 mg/mL in LC-grade H2O. Peptides were diluted in vehicle (1 mg/ml mouse albumin in PBS) before injection.
C57BL/6J male mice at 14 weeks of age were treated with either vehicle, erusiolin, or the DPP4-cleaved peptide in a crossover trial study using intraperitoneal injection of the peptides. Each mouse was randomly allocated to a sequence of treatments. Each sequence had treatments in a random order. One treatment was performed per mouse per day and injections were at 5pm just before the night feeding period. Between each treatment day a washout day was included where no injection was performed to allow the previous days treatment to be degraded and minimise confounding effects. The food intake and body weight of each animal was measured just prior to injection and again 16 h after injection. This enable the calculation of the mass delta (change) for food intake and body mass. A repeated-measures one-way ANOVA was used to determine significance between the vehicle negative control treatment and the other treatments. Statistical analyses were performed using R (version 3.4.3) and processed data was plotted using Tableau (version 10.0.2). […]

As to APFLLEDPANQFLRL [erusiolin], the body weight entry is listed as “significant decrease” and the food intake result is listed as “significant decrease”.

With FLLEDPANQFLRL [DPP4-cleaved], the body weight entry was “not significant or less significant” and the food intake result is “not significant or less significant”.
